Data on 21 compounds can be found in US20250066379A1, “ANTIMALARIAL AGENTS” (Merck Sharp & Dohme LLC, priority 2021, published 2025).

Each structure is given as a SMILES string.

The test system of the first assay is parasite. The assay is described as follows: Parasite LDH growth assay (Parasite Assay). In kind it is cell-based, Plasmodium falciparum. The note with it: Plasmodium falciparum, 72 h, ring stage parasites, 72 hours growth at 37° C., LDH readout of parasite growth. The procedure:
Assessing Antiparasite Potency in a Parasite LDH Growth Assay (Parasite Assay) The parasite stock was maintained at 4% haematocrit in RPMI-Hepes media 30 buffered with sodium bicarbonate and supplemented with 5% heat inactivated human serum and 0.5% albumax. Approximately 42 hours prior to the potency assay being set up, parasites were synchronized with 5% sorbitol to select for ring stage parasites. On the day of assay set up, a blood smear of the parasite culture was Giemsa stained and counted. The parasitemia was 35 adjusted to 0.7% rings and the haematocrit was diluted to 2% in RPMI-Hepes media buffered with sodium bicarbonate and supplemented with 5% heat inactivated human serum and 0.5% albumax. 30 ul of diluted parasites are then added into 10 μl of media+compound in pre-prepared Greiner TC assay plates. Parasite assay plates were placed in gassed humidified boxes in single layer and allowed to incubate at 37° C. for 72 hours. After 72 hours growth, assay plates are sealed with parafilm and frozen flat, in single file at −80° C. overnight. On the following day, assay plates were allowed to thaw at room temperature for 4 hours to which an LDH assay was performed to measure parasite growth.
By EC50 is commonly meant the concentration that produces a half-maximal response. Read a high EC50 as lower potency in that assay. Compound `CC[C@]12CCCCCc3ccc4c(c3)[C@H](CCO4)NC(=O)c3ccc4c(c3)[C@@H](CCO4)N(C(=N)N1)C(=O)C2` (racemic) [Example 19, rac-(1R,5R,18S)-5-ethyl-3-imino-15,25-dioxa-2,4,19-triazahexacyclo[19. 6.2.22,5.211,14.013, 18.024,28] tritriaconta-11,13,21,23,28,30-hexaene-20,33-dione] gave an EC50 of 4.8 nM.

`CC[C@]12CCC/C=C/c3ccc4c(c3)[C@H](CCO4)NC(=O)c3ccc4c(c3)[C@@H](CCO4)N(C(=N)N1)C(=O)C2` (racemic) [Example 18, rac-(1R,5R,9E,18S)-5-ethyl-3-imino-15,25-dioxa-2,4,19-triazahexacyclo[19. 6.2.22,5.211,14.013, 18.024,28] tritriaconta-9,11,13,21,23,28,30-heptaene-20,33-dione] returned an EC50 of 6 nM. On the same count and under the same terms, the value for `CC[C@]12CCCC(C)c3ccc4c(c3)[C@@H](NC(=O)c3ccc5c(c3)[C@@H](CCO5)N(C(=N)N1)C(=O)C2)[C@H](O)C4` (stereo partly drawn) [Example 1, (1R,5R,15R,16R)-5-ethyl-15-hydroxy-3-imino-9-methyl-23-oxa-2,4,17-triazahexacyclo[17.6.2.22,5.210,13.012,16.022,26]hentriaconta-10,12,19,21,26,28-hexaene-18,31-dione] was 2.7 nM; that for `CC[C@]12CCC/C=C\c3ccc4c(c3)[C@@H](NC(=O)c3ccc5c(c3)[C@@H](CCO5)N(C(=N)N1)C(=O)C2)[C@H](O)C4` [Example 6, (1R,5R,9Z,16R, 17R)-5-ethyl-16-hydroxy-3-imino-24-oxa-2,4,18-triazahexacyclo[18. 6.2.22,5.211,14.013, 17.023,27] dotriaconta-9,11,13,20,22,27, 29-heptaene-19,32-dione] was 2.8 nM; that for `CC[C@]12CCCCCCc3ccc4c(c3)[C@H](CC(C)(C)O4)NC(=O)c3ccc4c(c3)[C@@H](CCO4)N(C(=N)N1)C(=O)C2` [Example 12, (1R,5R,19S)-5-ethyl-3-imino-17,17-dimethyl-16,26-dioxa-2,4,20-triazahexacyclo[20. 6.2.22,5.212,15.014, 19.025,29] tetratriaconta-12,14,22(30),23, 25(29),31-hexaene-21,34-dione] was 1 nM.

`CC[C@]12CCCC3CC3c3ccc4c(c3)[C@H](CCO4)NC(=O)c3ccc4c(c3)[C@@H](CCO4)N(C(=N)N1)C(=O)C2` (mixture of isomers) [Example 21, rac-(8R,12R,22S)-8-ethyl-10-imino-15,25-dioxa-9,11,21-triazaheptacyclo[20. 6.2.28,11.216,19.02, 4.012,17.026,30] tetratriaconta-1(29),16(32),17,19 (31),26(30),27-hexaene-20,33-dione] returned an EC50 of 5.1 nM. The same measure, in the same setting: the value for `CCC12CCCC3CC3c3ccc4c(c3)[C@H](CC(C)(C)O4)NC(=O)c3ccc4c(c3)[C@@H]([C@H](COC)CO4)N(C(=N)N1)C(=O)C2` (mixture of isomers) [Example 17, rac-(12R,13R,22S)-8-ethyl-10-imino-13-(methoxymethyl)-24,24-dimethyl-15,25-dioxa-9,11,21-triazaheptacyclo[20. 6.2.28,11.216,19.02, 4.012,17.026,30] tetratriaconta-1(29),16(32),17,19 (31),26(30),27-hexaene-20,33-dione] was 18.9 nM; that for `CC[C@@]12CCCCCCc3ccc4c(c3)OC(C)(C)C[C@@H]4NC(=O)c3ccc4c(c3)[C@@H](CCO4)N(C(=N)N1)C(=O)C2` [Example 13, (1R,5S,20S)-5-ethyl-3-imino-18,18-dimethyl-17,27-dioxa-2,4,21-triazahexacyclo[21. 6.2.22,5.112,16.015, 20.026,30] tetratriaconta-12(32),13,15,23,25, 30-hexaene-22,34-dione] was 22 nM; that for `CC[C@]12CCCCCCc3ccc4c(c3)OC(C)(C)C[C@@H]4NC(=O)c3ccc4c(c3)[C@@H](CCO4)N(C(=N)N1)C(=O)C2` [Example 14, (1R,5R,20S)-5-ethyl-3-imino-18,18-dimethyl-17,27-dioxa-2,4,21-triazahexacyclo[21. 6.2.22,5.112,16.015, 20.026,30] tetratriaconta-12(32),13,15,23, 25,30-hexaene-22,34-dione] was 34 nM.

For the compound `CC[C@]12CCC/C=C\Cc3ccc4c(c3)[C@H](CC(C)(C)O4)NC(=O)c3ccc4c(c3)[C@@H](CCO4)N(C(=N)N1)C(=O)C2` [Example 10, (1R,5R,9Z,19S)-5-ethyl-3-imino-17,17-dimethyl-16,26-dioxa-2,4,20-triazahexacyclo[20. 6.2.22,5.212,15.014, 19.025,29] tetratriaconta-9,12,14,22(30),23, 25(29),31-heptaene-21,34-dione], the half-maximal effective concentration (EC50) came to 2.5 nM. With `CCC12CCCCCc3ccc4c(c3)[C@H](CC(C)(C)O4)NC(=O)c3ccc4c(c3)[C@@H]([C@H](COC)CO4)N(C(=N)N1)C(=O)C2` (stereo partly drawn) [Example 16A, (1R,18S,27R)-5-ethyl-3-imino-27-(methoxymethyl)-16,16-dimethyl-15,25-dioxa-2,4,19-triazahexacyclo[19. 6.2.22,5.211,14.013, 18.024,28] tritriaconta-11,13,21,23,28,30-hexaene-20,33-dione], the midpoint of the response, the EC50, lay at 61.5 nM. As to `CC[C@]12CCCCCc3ccc4c(c3)[C@@H](NC(=O)c3ccc5c(c3)[C@@H](CCO5)N(C(=N)N1)C(=O)C2)[C@H](O)C4` [Example 2, (1R,5R,16R,17R)-5-ethyl-16-hydroxy-3-imino-24-oxa-2,4,18-triazahexacyclo[18.6.2.22,5.211,14.013,17.023,27]dotriaconta-11,13,20,22,27,29-hexaene-19,32-dione], the EC50 worked out at 11 nM. Compound `CC[C@]12CCCCCc3ccc4c(c3)OC(C)(C)C[C@@H]4NC(=O)c3ccc4c(c3)[C@@H](CCO4)N(C(=N)N1)C(=O)C2` (racemic) [Example 22, rac-(1R,5R,19S)-5-ethyl-3-imino-17,17-dimethyl-16,26-dioxa-2,4,20-triazahexacyclo[20. 6.2.22,5.111,15.014, 19.025,29] tritriaconta-11(31),12,14,22,24, 29-hexaene-21,33-dione] gave a half-maximal effective concentration (EC50) of 57.4 nM. `CC[C@]12CCCCOc3ccc4c(c3)[C@H](CC(C)(C)O4)NC(=O)c3ccc4c(c3)[C@@H](CCO4)N(C(=N)N1)C(=O)C2` [Example 4, (1R,5R,18S)-5-ethyl-3-imino-16,16-dimethyl-10,15,25-trioxa-2,4,19-triazahexacyclo[19.6.2.22,5.211,14.013,18.024,28]tritriaconta-11,13,21,23,28,30-hexaene-20,33-dione] returned a 50% effective concentration (EC50) of 2 nM.

In turn, `CC[C@]12CCCCCc3ccc4c(c3)[C@H](CC(C)(C)O4)NC(=O)c3ccc4c(c3)[C@@H](CCO4)N(C(=N)N1)C(=O)C2` [Example 8, (1R,5R,18S)-5-ethyl-3-imino-16,16-dimethyl-15,25-dioxa-2,4,19-triazahexacyclo[19. 6.2.22,5.211,14.013, 18.024,28] tritriaconta-11,13,21,23,28,30-hexaene-20,33-dione] returned an EC50 of 1.1 nM. The same measure, in the same setting: the figure for `CC[C@@]12CCCCCc3ccc4c(c3)[C@H](CC(C)(C)O4)NC(=O)c3ccc4c(c3)[C@@H](CCO4)N(C(=N)N1)C(=O)C2` [Example 9, (1R,5S,18S)-5-ethyl-3-imino-16,16-dimethyl-15,25-dioxa-2,4,19-triazahexacyclo[19. 6.2.22,5.211,14.013, 18.024,28] tritriaconta-11,13,21,23,28,30-hexaene-20,33-dione] is 76.5 nM; for `CCC12CCCCCc3ccc4c(c3)[C@H](CC(C)(C)O4)NC(=O)c3ccc4c(c3)[C@@H]([C@H](COC)CO4)N(C(=N)N1)C(=O)C2` (mixture of isomers) [Example 16B, rac-(1R,18S,27R)-5-ethyl-3-imino-27-(methoxymethyl)-16,16-dimethyl-15,25-dioxa-2,4,19-triazahexacyclo[19. 6.2.22,5.211,14.013, 18.024,28] tritriaconta-11,13,21,23,28,30-hexaene-20,33-dione] it is 3.4 nM.

As for `CC[C@]12CCCCc3ccc4c(c3)[C@H](CC(C)(C)O4)NC(=O)c3ccc4c(c3)[C@@H](CCO4)N(C(=N)N1)C(=O)C2` [Example 3A, (1R,5R,17S)-5-ethyl-3-imino-15,15-dimethyl-14,24-dioxa-2,4,18-triazahexacyclo[18.6.2.22,5.210,13.012,17.023,27]dotriaconta-10,12,20,22,27,29-hexaene-19,32-dione], a half-maximal effect (EC50) was put at 0.2 nM.

Still in this assay, the particulars now being: ring stage parasites, 72 hours growth at 37° C., LDH readout of parasite growth.
As to `COC[C@@H]1COc2ccc3cc2[C@@H]1N1C(=N)NC(C)(CCCCCc2ccc4c(c2)[C@H](CC(C)(C)O4)NC3=O)CC1=O` (mixture of isomers) [Example 25B, rac-(1R,18S,27R)-3-imino-27-(methoxymethyl)-5,16,16-trimethyl-15,25-dioxa-2,4,19-triazahexacyclo[19. 6.2.22,5.211,14.013, 18.024,28] tritriaconta-11,13,21,23,28,30-hexaene-20,33-dione], the EC50 worked out at 0.7 nM. The compound `CCC12CCCCCc3ccc4c(c3)[C@@H](NC(=O)c3ccc5c(c3)[C@@H]([C@H](COC)CO5)N(C(=N)N1)C(=O)C2)[C@H](O)C4` (single isomer, unassigned) [Example 15B] came in with an EC50 of 81 nM.

On to `CCC12CCC/C=C/c3ccc4c(c3)[C@H](CC(C)(C)O4)NC(=O)c3ccc4c(c3)[C@@H]([C@H](COC)CO4)N(C(=N)N1)C(=O)C2` (mixture of isomers) [Example 26A, rac-(1R,9E,18S,27R)-5-ethyl-3-imino-27-(methoxymethyl)-16,16-dimethyl-15,25-dioxa-2,4,19-triazahexacyclo[19. 6.2.22,5.211,14.013, 18.024,28] tritriaconta-9,11,13,21,23,28,30-heptaene-20,33-dione], for which the EC50 came to 190 nM.
